In the kinase profiling compilation of Christmann-Franck et al. (2016):

Columns and labels:
Assay in all cases: radiometric filter-binding kinase assay, Kinase HotSpot
Details in all cases: compound 0.5 µM; ATP 10 µM
ZAP70 (human) = ZAP70 (human) (UniProt P43403)
YES1 (human) = YES1 (human) (UniProt P07947)
DAPK1 (human) = DAPK1 (human) (UniProt P53355)
CSNK2A2 (human) = CSNK2A2 (human) (UniProt P19784)
CDK1 CCNB1 (human) = CDK1 CCNB1 (human) (UniProt P06493+P14635)
BMX (human) = BMX (human) (UniProt P51813)
BMX (human), sequence (P51813 whole entry, looked up): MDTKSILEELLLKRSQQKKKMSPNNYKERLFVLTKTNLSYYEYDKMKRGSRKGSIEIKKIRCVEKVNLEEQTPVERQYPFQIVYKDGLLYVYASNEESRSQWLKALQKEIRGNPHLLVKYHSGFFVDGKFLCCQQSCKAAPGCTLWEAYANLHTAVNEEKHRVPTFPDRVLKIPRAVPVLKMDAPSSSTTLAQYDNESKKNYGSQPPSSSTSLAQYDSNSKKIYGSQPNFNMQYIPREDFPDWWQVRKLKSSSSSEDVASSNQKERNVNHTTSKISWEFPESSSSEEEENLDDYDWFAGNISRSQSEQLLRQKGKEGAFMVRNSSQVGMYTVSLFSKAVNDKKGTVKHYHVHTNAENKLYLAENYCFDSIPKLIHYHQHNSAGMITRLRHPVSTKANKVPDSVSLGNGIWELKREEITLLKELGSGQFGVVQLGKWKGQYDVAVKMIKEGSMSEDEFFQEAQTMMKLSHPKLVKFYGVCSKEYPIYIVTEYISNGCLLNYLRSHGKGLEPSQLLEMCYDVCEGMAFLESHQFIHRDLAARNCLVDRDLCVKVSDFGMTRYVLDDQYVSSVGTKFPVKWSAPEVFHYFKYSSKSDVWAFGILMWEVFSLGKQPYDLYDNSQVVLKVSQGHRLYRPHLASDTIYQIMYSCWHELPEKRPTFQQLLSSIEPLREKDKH

LRRK2 (human) = LRRK2 (human) (UniProt Q5S007)
MAP3K3 (human) = MAP3K3 (human) (UniProt Q99759)
PHKG1 (human) = PHKG1 (human) (UniProt Q16816)
PHKG1 (human), sequence (Q16816 whole entry, looked up): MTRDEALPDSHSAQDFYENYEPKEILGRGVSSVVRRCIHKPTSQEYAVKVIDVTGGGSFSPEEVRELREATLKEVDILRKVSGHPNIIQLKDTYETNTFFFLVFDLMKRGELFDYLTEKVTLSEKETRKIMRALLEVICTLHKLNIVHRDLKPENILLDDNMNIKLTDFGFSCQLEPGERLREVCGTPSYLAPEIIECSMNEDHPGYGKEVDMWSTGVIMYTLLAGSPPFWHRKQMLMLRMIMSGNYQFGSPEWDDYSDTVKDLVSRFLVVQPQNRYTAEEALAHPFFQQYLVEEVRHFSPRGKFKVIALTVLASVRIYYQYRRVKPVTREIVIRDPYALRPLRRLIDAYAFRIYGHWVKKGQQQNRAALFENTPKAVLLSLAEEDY

ACVR1B (human) = ACVR1B (human) (UniProt P36896)
GSK3A (human) = GSK3A (human) (UniProt P49840)
DDR2 (human) = DDR2 (human) (UniProt Q16832)
AURKC (human) = AURKC (human) (UniProt Q9UQB9)
PRKCB1 (human) = PRKCB1 (human) (UniProt P05771)
EPHA7 (human) = EPHA7 (human) (UniProt Q15375)
FLT3 (human) = FLT3 (human) (UniProt P36888)
MYLK2 (human) = MYLK2 (human) (UniProt Q9H1R3)
FYN (human) = FYN (human) (UniProt P06241)
PTK6 (human) = PTK6 (human) (UniProt Q13882)
DYRK2 (human) = DYRK2 (human) (UniProt Q92630)
IKBKB (human) = IKBKB (human) (UniProt O14920)
FES (human) = FES (human) (UniProt P07332)
FES (human), sequence (P07332 whole entry, looked up): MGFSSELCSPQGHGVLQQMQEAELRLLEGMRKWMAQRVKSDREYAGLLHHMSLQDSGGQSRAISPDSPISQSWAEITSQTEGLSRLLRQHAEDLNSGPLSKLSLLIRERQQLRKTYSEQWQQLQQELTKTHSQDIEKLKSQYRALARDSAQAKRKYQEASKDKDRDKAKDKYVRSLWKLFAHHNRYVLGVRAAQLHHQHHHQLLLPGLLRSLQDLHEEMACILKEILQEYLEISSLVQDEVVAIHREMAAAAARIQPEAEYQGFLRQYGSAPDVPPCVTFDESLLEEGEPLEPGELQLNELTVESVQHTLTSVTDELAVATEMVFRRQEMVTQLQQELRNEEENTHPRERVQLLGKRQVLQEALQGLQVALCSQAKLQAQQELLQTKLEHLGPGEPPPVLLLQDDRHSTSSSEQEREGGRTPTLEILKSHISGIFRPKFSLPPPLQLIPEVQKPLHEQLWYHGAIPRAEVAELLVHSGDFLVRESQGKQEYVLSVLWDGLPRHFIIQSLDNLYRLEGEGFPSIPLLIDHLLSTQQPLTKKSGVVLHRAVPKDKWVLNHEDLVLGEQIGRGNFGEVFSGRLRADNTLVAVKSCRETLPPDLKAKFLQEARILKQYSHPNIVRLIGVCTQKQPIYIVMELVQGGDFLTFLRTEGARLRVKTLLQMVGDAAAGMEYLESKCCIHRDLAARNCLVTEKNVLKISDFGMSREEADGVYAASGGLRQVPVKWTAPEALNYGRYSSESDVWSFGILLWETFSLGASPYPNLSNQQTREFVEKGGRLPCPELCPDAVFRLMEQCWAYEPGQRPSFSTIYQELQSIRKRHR

PLK3 (human) = PLK3 (human) (UniProt Q9H4B4)
PAK4 (human) = PAK4 (human) (UniProt O96013)
PAK4 (human), sequence (O96013 whole entry, looked up): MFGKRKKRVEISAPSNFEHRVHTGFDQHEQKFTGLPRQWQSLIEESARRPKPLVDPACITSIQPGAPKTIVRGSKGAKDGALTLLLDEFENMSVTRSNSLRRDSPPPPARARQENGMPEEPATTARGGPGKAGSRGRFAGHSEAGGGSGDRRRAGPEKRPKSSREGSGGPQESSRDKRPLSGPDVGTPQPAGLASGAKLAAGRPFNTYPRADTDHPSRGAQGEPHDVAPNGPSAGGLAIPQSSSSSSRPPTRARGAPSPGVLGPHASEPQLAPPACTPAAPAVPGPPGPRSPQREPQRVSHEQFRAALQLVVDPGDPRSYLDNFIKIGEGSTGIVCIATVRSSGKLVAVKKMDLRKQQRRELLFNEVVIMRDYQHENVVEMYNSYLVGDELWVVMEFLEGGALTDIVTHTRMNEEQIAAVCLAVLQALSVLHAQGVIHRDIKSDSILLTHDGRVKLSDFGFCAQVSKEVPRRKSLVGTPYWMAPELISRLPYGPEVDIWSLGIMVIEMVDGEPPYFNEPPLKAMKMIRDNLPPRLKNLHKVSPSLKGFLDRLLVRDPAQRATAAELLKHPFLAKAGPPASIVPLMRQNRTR

MAPKAPK2 (human) = MAPKAPK2 (human) (UniProt P49137)
MST4 (human) = MST4 (human) (UniProt Q9P289)
MST4 (human), sequence (Q9P289 whole entry, looked up): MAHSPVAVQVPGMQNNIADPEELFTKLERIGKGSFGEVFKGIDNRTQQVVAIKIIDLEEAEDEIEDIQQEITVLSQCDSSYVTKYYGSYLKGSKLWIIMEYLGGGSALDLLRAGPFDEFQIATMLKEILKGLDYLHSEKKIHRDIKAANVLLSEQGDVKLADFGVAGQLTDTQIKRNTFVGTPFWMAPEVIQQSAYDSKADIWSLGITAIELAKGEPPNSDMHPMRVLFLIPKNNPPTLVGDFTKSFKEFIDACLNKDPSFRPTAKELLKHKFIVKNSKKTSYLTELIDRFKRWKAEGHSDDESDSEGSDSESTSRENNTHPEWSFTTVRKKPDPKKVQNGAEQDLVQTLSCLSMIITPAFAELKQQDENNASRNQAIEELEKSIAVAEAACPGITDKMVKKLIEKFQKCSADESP

ADRBK1 (human) = ADRBK1 (human) (UniProt P25098)
ADRBK1 (human), sequence (P25098 whole entry, looked up): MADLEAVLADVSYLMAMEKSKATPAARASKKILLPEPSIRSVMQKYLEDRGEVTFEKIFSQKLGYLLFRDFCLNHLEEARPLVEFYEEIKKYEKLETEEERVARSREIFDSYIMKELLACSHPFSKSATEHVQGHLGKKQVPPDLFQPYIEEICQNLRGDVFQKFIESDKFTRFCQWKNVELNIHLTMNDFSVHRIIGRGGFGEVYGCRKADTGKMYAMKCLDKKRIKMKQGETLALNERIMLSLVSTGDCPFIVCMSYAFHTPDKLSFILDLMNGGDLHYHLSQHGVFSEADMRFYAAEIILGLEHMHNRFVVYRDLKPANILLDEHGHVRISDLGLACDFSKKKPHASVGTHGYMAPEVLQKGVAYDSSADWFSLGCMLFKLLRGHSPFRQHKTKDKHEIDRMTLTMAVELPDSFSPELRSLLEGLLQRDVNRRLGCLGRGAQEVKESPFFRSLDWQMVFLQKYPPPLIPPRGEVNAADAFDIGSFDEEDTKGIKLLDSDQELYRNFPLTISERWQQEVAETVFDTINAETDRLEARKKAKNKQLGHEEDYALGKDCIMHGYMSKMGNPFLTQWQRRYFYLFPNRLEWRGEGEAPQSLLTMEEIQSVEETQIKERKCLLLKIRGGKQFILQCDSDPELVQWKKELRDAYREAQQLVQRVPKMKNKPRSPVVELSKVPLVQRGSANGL

STK16 (human) = STK16 (human) (UniProt O75716)
ACVR1 (human) = ACVR1 (human) (UniProt Q04771)
HIPK4 (human) = HIPK4 (human) (UniProt Q8NE63)
FLT1 (human) = FLT1 (human) (UniProt P17948)
IKBKE (human) = IKBKE (human) (UniProt Q14164)
GSK3B (human) = GSK3B (human) (UniProt P49841)
CAMK1 (human) = CAMK1 (human) (UniProt Q14012)
STK33 (human) = STK33 (human) (UniProt Q9BYT3)
MAP3K10 (human) = MAP3K10 (human) (UniProt Q02779)
ROCK1 (human) = ROCK1 (human) (UniProt Q13464)
EPHA5 (human) = EPHA5 (human) (UniProt P54756)

YES1 (human), sequence (P07947 whole entry, looked up): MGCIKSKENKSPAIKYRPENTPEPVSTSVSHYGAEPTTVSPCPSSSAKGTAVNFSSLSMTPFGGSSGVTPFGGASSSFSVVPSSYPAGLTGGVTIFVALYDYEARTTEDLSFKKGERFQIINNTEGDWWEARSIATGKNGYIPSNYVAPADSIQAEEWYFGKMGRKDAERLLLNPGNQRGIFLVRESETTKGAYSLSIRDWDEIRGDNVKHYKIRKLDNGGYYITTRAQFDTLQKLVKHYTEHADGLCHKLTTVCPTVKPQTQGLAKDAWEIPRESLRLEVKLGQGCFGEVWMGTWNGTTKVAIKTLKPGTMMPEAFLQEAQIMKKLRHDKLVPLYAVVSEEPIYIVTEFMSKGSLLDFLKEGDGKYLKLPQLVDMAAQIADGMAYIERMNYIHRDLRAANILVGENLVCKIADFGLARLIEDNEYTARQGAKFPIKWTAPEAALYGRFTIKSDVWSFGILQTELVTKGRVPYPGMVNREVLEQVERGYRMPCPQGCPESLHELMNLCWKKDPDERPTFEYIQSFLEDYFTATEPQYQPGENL
ZAP70 (human), sequence (P43403 whole entry, looked up): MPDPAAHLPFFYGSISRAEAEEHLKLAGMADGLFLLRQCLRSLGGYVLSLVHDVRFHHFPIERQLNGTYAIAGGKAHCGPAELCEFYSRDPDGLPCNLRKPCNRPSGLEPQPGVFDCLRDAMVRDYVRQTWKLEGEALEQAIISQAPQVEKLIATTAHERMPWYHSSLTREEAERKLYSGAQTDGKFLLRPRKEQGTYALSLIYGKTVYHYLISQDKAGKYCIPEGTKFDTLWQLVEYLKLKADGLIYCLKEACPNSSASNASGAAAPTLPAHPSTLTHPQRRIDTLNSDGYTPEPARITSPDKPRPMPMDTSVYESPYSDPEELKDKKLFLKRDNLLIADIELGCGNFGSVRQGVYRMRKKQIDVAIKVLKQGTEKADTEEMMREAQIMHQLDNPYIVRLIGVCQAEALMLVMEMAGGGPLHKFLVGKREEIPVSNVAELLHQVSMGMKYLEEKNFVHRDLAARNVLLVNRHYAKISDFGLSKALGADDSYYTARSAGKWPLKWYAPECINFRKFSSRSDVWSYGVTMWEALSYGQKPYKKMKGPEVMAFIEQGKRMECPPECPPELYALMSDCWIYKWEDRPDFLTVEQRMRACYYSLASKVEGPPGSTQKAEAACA

Compound	residual activity (ZAP70 (human)) [%]	residual activity (YES1 (human)) [%]	residual activity (DAPK1 (human)) [%]	residual activity (CSNK2A2 (human)) [%]	residual activity (CDK1 CCNB1 (human)) [%]	residual activity (BMX (human)) [%]	residual activity (LRRK2 (human)) [%]	residual activity (MAP3K3 (human)) [%]	residual activity (PHKG1 (human)) [%]	residual activity (ACVR1B (human)) [%]	residual activity (GSK3A (human)) [%]	residual activity (DDR2 (human)) [%]	residual activity (AURKC (human)) [%]	residual activity (PRKCB1 (human)) [%]	residual activity (EPHA7 (human)) [%]	residual activity (FLT3 (human)) [%]	residual activity (MYLK2 (human)) [%]	residual activity (FYN (human)) [%]	residual activity (PTK6 (human)) [%]	residual activity (DYRK2 (human)) [%]	further results
O=c1cc(N2CCOCC2)oc2c1ccc1ccccc12	103	98.7	90.9	78.6	85.5	92.7	96.9	102	98.2	103	97.1	105	107	93.4	98.6	104	97.7	113	101	88.9	residual activity (IKBKB (human)): 105%; residual activity (FES (human)): 100%; residual activity (PLK3 (human)): 64%; residual activity (PAK4 (human)): 108%; residual activity (MAPKAPK2 (human)): 98.3%; residual activity (MST4 (human)): 93.2%; residual activity (ADRBK1 (human)): 98.9%; residual activity (STK16 (human)): 99%; residual activity (ACVR1 (human)): 107%; residual activity (HIPK4 (human)): 101%; residual activity (FLT1 (human)): 95.5%; residual activity (IKBKE (human)): 101%; residual activity (GSK3B (human)): 124%; residual activity (CAMK1 (human)): 111%; residual activity (STK33 (human)): 97.5%; residual activity (MAP3K10 (human)): 102%; residual activity (ROCK1 (human)): 94.2%; residual activity (EPHA5 (human)): 110%
Cc1ccc(S(=O)(=O)/C=C/C#N)cc1	97.5	94.2	100	97.9	92.3	105	115	98.1	95.8	107	106	96.4	97.1	101	99.8	100	105	95.4	93.1	102	residual activity (IKBKB (human)): 110%; residual activity (FES (human)): 100%; residual activity (PLK3 (human)): 97.1%; residual activity (PAK4 (human)): 91.9%; residual activity (MAPKAPK2 (human)): 93.7%; residual activity (MST4 (human)): 90.7%; residual activity (ADRBK1 (human)): 102%; residual activity (STK16 (human)): 88.3%; residual activity (ACVR1 (human)): 101%; residual activity (HIPK4 (human)): 108%; residual activity (FLT1 (human)): 92.8%; residual activity (IKBKE (human)): 101%; residual activity (GSK3B (human)): 109%; residual activity (CAMK1 (human)): 98.8%; residual activity (STK33 (human)): 87.1%; residual activity (MAP3K10 (human)): 105%; residual activity (ROCK1 (human)): 93.2%; residual activity (EPHA5 (human)): 111%
COc1ccc2c(c[n+](C)c3c4cc5c(cc4ccc23)OCO5)c1OC	101	93.8	86.7	89.7	84.4	104	104	101	90.4	110	105	96.1	93.5	100	95.4	76.9	95.3	101	94.4	94.5	residual activity (IKBKB (human)): 103%; residual activity (FES (human)): 108%; residual activity (PLK3 (human)): 100%; residual activity (PAK4 (human)): 99.5%; residual activity (MAPKAPK2 (human)): 103%; residual activity (MST4 (human)): 89.4%; residual activity (ADRBK1 (human)): 96.6%; residual activity (STK16 (human)): 102%; residual activity (ACVR1 (human)): 93.2%; residual activity (HIPK4 (human)): 95.9%; residual activity (FLT1 (human)): 88.8%; residual activity (IKBKE (human)): 101%; residual activity (GSK3B (human)): 88.3%; residual activity (CAMK1 (human)): 81.4%; residual activity (STK33 (human)): 102%; residual activity (MAP3K10 (human)): 91.7%; residual activity (ROCK1 (human)): 99.4%; residual activity (EPHA5 (human)): 94.6%
CC(=O)c1ccc(N2CCOCC2)cc1O	99.5	100	92.8	98.8	86.8	90.6	96.1	108	96.5	100	101	104	104	96.3	95.5	102	98.6	103	104	101	residual activity (IKBKB (human)): 103%; residual activity (FES (human)): 100%; residual activity (PLK3 (human)): 98.1%; residual activity (PAK4 (human)): 103%; residual activity (MAPKAPK2 (human)): 103%; residual activity (MST4 (human)): 99.5%; residual activity (ADRBK1 (human)): 99%; residual activity (STK16 (human)): 110%; residual activity (ACVR1 (human)): 107%; residual activity (HIPK4 (human)): 101%; residual activity (FLT1 (human)): 97.1%; residual activity (IKBKE (human)): 105%; residual activity (GSK3B (human)): 122%; residual activity (CAMK1 (human)): 102%; residual activity (STK33 (human)): 109%; residual activity (MAP3K10 (human)): 104%; residual activity (ROCK1 (human)): 92.9%; residual activity (EPHA5 (human)): 109%
CCN(CC)C(=O)c1ccc(Nc2nc(OCC3CCCCC3)c3nc[nH]c3n2)cc1	94	15.4	81.6	90.9	62.4	42.9	2.21	47.3	85.9	101	80.3	109	20.7	103	72.8	10.3	94.7	62.6	30.7	98.2	residual activity (IKBKB (human)): 97.3%; residual activity (FES (human)): 63.2%; residual activity (PLK3 (human)): 98.1%; residual activity (PAK4 (human)): 51.5%; residual activity (MAPKAPK2 (human)): 99.2%; residual activity (MST4 (human)): 84.9%; residual activity (ADRBK1 (human)): 92.6%; residual activity (STK16 (human)): 33.6%; residual activity (ACVR1 (human)): 98.8%; residual activity (HIPK4 (human)): 96.5%; residual activity (FLT1 (human)): 84%; residual activity (IKBKE (human)): 77.9%; residual activity (GSK3B (human)): 85%; residual activity (CAMK1 (human)): 85.6%; residual activity (STK33 (human)): 67.2%; residual activity (MAP3K10 (human)): 15.2%; residual activity (ROCK1 (human)): 54.9%; residual activity (EPHA5 (human)): 95%
